Assay results: patent publication US4691024A, “New mitomycin derivatives, preparation thereof and pharmaceutical compositions containing them” (priority 1984, dated 1987)
Values after ≈ are worked out from the molar mass of the structure shown. Counter-ions that a name gives are not always drawn.

Key:
[1] = Acute toxicity in mice (LD50, Behrens Kerber's method); settings: mouse, in vivo, ip; ddy mice, single intraperitoneal administration, 14 days observation
Procedure: (§1) The antitumour-activity and toxicity of various compounds of formula (I) were investigated as indicated below.
Each animal of the test group consisting of 5 ddy mice was administered intraperitoneally once with a test compound. […] The LD50 was determined by Behrens Kerber's method.

[2] = test system: Streptococcus faecalis ATCC 10541; assay: Antibacterial activity, minimum growth inhibitory concentration by agar dilution method (SF); assay type: cell-based; settings: Enterococcus faecalis, ATCC10541, pH 7, read-out: MIC, Streptococcus faecalis (SF)
Procedure: (§2) The various compounds of formula (I) of Examples 1-26 were tested for antibacterial activity against 6 microorganisms. […]. In this table, the following symbols are used:
SF: Streptococcus faecalis ATCC 10541

[3] = test system: Proteus vulgaris ATCC 6897; assay: Antibacterial activity, minimum growth inhibitory concentration by agar dilution method (PV); assay type: cell-based; settings: ATCC6897, pH 7, read-out: MIC, Proteus vulgaris (PV)
Procedure: as §2
PV: Proteus vulgaris ATCC 6897

peripheral leucocytes = assay: Effect on the peripheral leucocytes number in Sarcoma 180 bearing mice; assay type: in vivo; settings: Sarcoma 180 bearing ddy mice; intraperitoneal 24 hours after implantation; blood 4 days later
Procedure: as §1
(4) Effect on the peripheral leucocytes number
Sarcoma 180 solid tumour cells (5×10^6) were subcutaneously implanted into the right arm pit of each mouse (body weight 20±2 g) of a group consisting of 5 male mice (ddy strain). 24 hours after implantation, a test compound was intraperitoneally administered to each animal. 4 days later, blood (each 0.02 ml) was collected from the suborbital plexus vein of each tumour-carrying animal. The collected sample of the blood was dispersed in 9.98 ml of Cell-Kit Seven solution. One drop of saponin solution was added to the sample to dissolve erythrocytes, and then a microcell counter was used to measure the number of leucocytes. On a graph paper, the number of leucocytes was indicated on the y-axis by an arithmetic scale and the dose of the test compound was indicated on the x-axis by a logarithmic scale. The relationship between the number of peripheral leucocytes and the dosage of the test compound was plotted and the dosage corresponding to 4000 peripheral leucocytes/mm^3 (about 1/2 the number of leucocytes of normal mice) was obtained. This value is denoted in Table 5 by WBC4000.

Bacillus subtilis 10707 = assay: Antibacterial activity, minimum growth inhibitory concentration by agar dilution method (BS); assay type: cell-based; settings: Bacillus subtilis, 10707, pH 7, read-out: MIC, Bacillus subtilis (BS)
Procedure: as §2
BS: Bacillus subtilis 10707

[4] = test system: Staphylococcus aureus ATCC 6538P; assay: Antibacterial activity, minimum growth inhibitory concentration by agar dilution method (SA); assay type: cell-based; settings: ATCC6538P, pH 7, read-out: MIC, Staphylococcus aureus (SA)
Procedure: as §2
SA: Staphylococcus aureus ATCC 6538P

Sarcoma 180 solid tumour = assay: Anti-tumour activity against Sarcoma 180 solid tumour in mice; assay type: in vivo; settings: Mus musculus, sc, 168 h; Sarcoma 180 s.c. in ddy mice; into tail vein 24 hours after implantation; volume at 7 days; read-out: ED50 (dose reducing tumour volume to 50% of control)
Procedure: as §1
(1) Effect against Sarcoma 180 solid tumour cells
5×10^6 cells of Sarcoma 180 solid tumour were intraperitoneally implanted into ddy mice. 7 days later, ascites cells were sampled. The cells were washed once with a sterilized physiological solution of sodium chloride and were used to prepare a cell suspension containing 5×10^7 cells per ml. On each occasion, 0.1 ml of the cell suspension was subcutaneously implanted into the right arm pit of a male mouse (ddy strain; body weight 20±2 g). The test compound was dissolved in a physiological solution of sodium chloride with or without addition of Tween 80 and was administered into the tail vein of each mouse of a group consisting of 5 mice at a dose of 0.1-0.2 ml, 24 hours after the implantation of the tumour cells.
The anti-tumour activity was determined in the following manner. 7 days after the implantation, the major axis (a) and the minor axis (b) of the tumour were measured to calculate a value of "a×b^2 /2" which corresponds to the volume of the tumour. The anti-tumour activity was expressed by the ratio of the volume of the tumours (T) of the group of animals administered with the test compound to the corresponding volume of tumours (c) of the untreated animals.
(2) Determination of ED50
(The amount needed for reducing the volume of Sarcoma 180 solid tumours in mice to 50% on the basis of the corresponding volume of Sarcoma solid tumours in control untreated animals). On graph paper, T/C (the ratio of the volume of tumours of treated and control animals) was indicated by an arithmetic scale on the longitudinal axis and the administered amount of the test compound was indicated by a logarithmic scale on the lateral axis.
The relationship between the dose and T/C was shown by a straight line determined by the method of least squares, from which a dose corresponding to T/C of 0.5 was obtained.

[5] = test system: Klebsiella pneumoniae ATCC 10031; assay: microbe, parasite or virus in culture; assay type: cell-based; settings: ATCC10031, pH 7, read-out: MIC, Klebsiella pneumoniae (KP)
Description: In this table, the following symbols are used:
KP: Klebsiella pneumoniae ATCC 10031

[6] = test system: Shigella sonnei ATCC 9290; assay: Antibacterial activity, minimum growth inhibitory concentration by agar dilution method (SS); assay type: cell-based; settings: ATCC9290, pH 7, read-out: MIC, Shigella sonnei (SS)
Procedure: as §2
SS: Shigella sonnei ATCC 9290

[7] = Solubility in 0.03M phosphate buffered solution; assay type: physicochemical; settings: 0.03m phosphate buffer, aqueous buffer, pH 7.0, 23° C.
Procedure: The solubilities of Compound 5, Compound 14 and Compound 20 in 0.03M phosphate buffered solution (pH 7.0, 23° C.) were determined.

SMILES	LD50 at 336 h [1] [mg/kg]	MIC [2] [µg/mL]	MIC [3] [µg/mL]	WBC4000 (dosage corresponding to 4000 peripheral leucocytes/mm^3) (peripheral leucocytes) [mg/kg]	MIC (Bacillus subtilis 10707) [µg/mL]	MIC [4] [µg/mL]	ED50 (Sarcoma 180 solid tumour) [mg/kg]	MIC [5] [µg/mL]	MIC [6] [µg/mL]	solubility [7] [mg/mL]
CC1=C(NCCSSC[C@H](N)C(=O)O)C(=O)C2=C(C1=O)N1C[C@H]3[C@H](N3C)[C@]1(O)[C@H]2COC(N)=O (stereo partly drawn) [Compound 15, 7-N-[2-[(L-Cystein-S-yl)thio]ethyl]mitomycin D]	135	13 (≈ 25.3 µM)	13 (≈ 25.3 µM)	81.9	6.3 (≈ 12.3 µM)	13 (≈ 25.3 µM)	54			
CO[C@@]12[C@H](COC(N)=O)C3=C(C(=O)C(C)=C(NCCSSC(C)(C)[C@H](N)C(=O)O)C3=O)N1C[C@@H]1N[C@@H]12 [Compound 18, 7-N-[2-[(L-Pencillamin-S-yl)thio]ethyl]mitomycin C]	30	0.63 (≈ 1.16 µM)	0.31 (≈ 0.572 µM)	18.8	0.08 (≈ 0.148 µM)	0.31 (≈ 0.572 µM)	9.9	0.08 (≈ 0.148 µM)	> 20	
CO[C@@]12[C@H](COC(N)=O)C3=C(C(=O)C(C)=C(NCCSSC[C@H](NC(C)=O)C(=O)O)C3=O)N1C[C@@H]1N[C@@H]12 [Compound 19, 7-N-[2-[(N-Acetyl-L-cystein-S-yl)thio]ethyl]mitomycin C potassium salt]		1.3	2.5		0.08	0.63		0.63	> 20	
CO[C@@]12[C@H](COC(N)=O)C3=C(C(=O)C(C)=C(NCCSSC[C@H](N)C(=O)NCC(=O)O)C3=O)N1C[C@@H]1N[C@@H]12 [Compound 20, 7-N-[2-[(Glycino-L-cystein-S-71)thio]ethyl]mitomycin C]	27	0.63 (≈ 1.1 µM)	5 (≈ 8.76 µM)	20.5	0.08 (≈ 0.14 µM)	0.31 (≈ 0.543 µM)	9.6	0.63 (≈ 1.1 µM)		> 100
CC1=C(NCCSSC[C@H](N)C(=O)NCC(=O)O)C(=O)C2=C(C1=O)N1C[C@H]3[C@H](N3C)[C@]1(O)[C@H]2COC(N)=O (stereo partly drawn) [Compound 21, 7-N-[2-[(Glycino-L-cystein-S-yl)thio]ethyl]mitomycin D]	> 200	13 (≈ 22.8 µM)	13 (≈ 22.8 µM)	83.9	3.1 (≈ 5.43 µM)	13 (≈ 22.8 µM)	61.1			
CO[C@@]12[C@H](COC(N)=O)C3=C(C(=O)C(C)=C(NCCSSC[C@H](NC(=O)CC[C@H](N)C(=O)O)C(=O)NCC(=O)O)C3=O)N1C[C@@H]1N[C@@H]12 [Compound 22, 7-N-[2-[(γ-L-Glutamyl-L-cysteinylglycin-S-yl)thio]ethyl]mitomycin C potassium salt]		1.3	2.5		0.08	0.31		0.63	> 20	
CO[C@@]12[C@H](COC(N)=O)C3=C(C(=O)C(C)=C(NCCSSC(C)(C)[C@@H](N)C(=O)O)C3=O)N1C[C@@H]1N[C@@H]12 [Compound 28]	26.3			16.3			8.2			
